Test results as given in patent US20130225629A1, “TARGETING PI3K/MTOR SIGNALLING AND NEUTROPHIL RECRUITMENT FOR TREATMENT OF ENTERITIS” (THE UNIVERSITY OF NORTH CAROLINA AT CHAPEL HILL, priority 2012, published 2013).

Experiments:
[1] = system: Cxcl2 mRNA; experiment: Real-time RT-PCR of colonic Cxcl2 mRNA; format: in vivo, mice; conditions: AS252424 vs vehicle treated infected mice
Protocol: (§1) Total RNA from colonic tissue was extracted using TRIzol® kit (Invitrogen, Carlsbad, Calif., United States of America). Complementary DNA was prepared using M-MLV (Invitrogen). Messenger RNA levels of proinflammatory genes were determined using SYBR® Green PCR Master Mix (Applied Biosystems, Carlsbad, Calif., United States of America) on an ABI 7900HT Fast Real-Time PCR System and normalized to Gapdh. The polymerase chain reactions were performed according to the manufacturer's recommendation. The following gene primers were used: Gapdh_forward: 5′-[…]-3′ (SEQ ID NO: 2), Gapdh_reverse: 5′-[…]-3′ (SEQ ID NO: 3), II-1_forward: 5′-[…]-3′ (SEQ ID NO: 4), II-1_reverse: 5′-[…]-3′ (SEQ ID NO: 5), Cxcl2_forward: 5′-[…]-3′ (SEQ ID NO: 6), Cxcl2_reverse: 5′-[…]-3′ (SEQ ID NO: 7), II-17a_forward: 5′-[…]-3′ (SEQ ID NO: 8), II-17a_reverse: 5′-[…]-3′ (SEQ ID NO: 9), II12p40_forward: […] (SEQ ID NO: 10), II12p40_reverse: […] (SEQ ID NO: 11), Tnf forward: […] (SEQ ID NO: 12), Tnf reverse: […] (SEQ ID NO: 13).
(§2) Total RNA from intestinal tissues was extracted using TRIzol® kit (Invitrogen, Carlsbad, Calif., United States of America) following the manufacture's guide. cDNA was reverse-transcribed using M-MLV (Invitrogen). Proinflammatory 111β, Cxcl2, II17a and Tnfα mRNA expression levels were measured using SYBR® Green PCR Master mix (Applied Biosystems, Carlsbad, Calif., United States of America) on an ABI 7900HT Fast Real-Time PCR System and normalized to Gapdh. The PCR primers used were reported previously. (Sun et al., 2012). The PCR reactions were performed for 40 cycles according to the manufacturer's recommendation, and RNA fold changes were calculated using the ΔΔct method.

[2] = system: C. jejuni; experiment: Colonic crypt abscess count in C. jejuni infected mice; format: in vivo; conditions: AS252424-treated II10−/− mice vs vehicle
From the text: All animal protocols were approved by the Institutional Animal Care and Use Committee of the University of North Carolina at Chapel Hill (Chapel Hill, N.C., United States of America). Germ-free 8-12 week-old II10^−/−; NF-κBEGFP (129/SvEv; C57BL/6 mixed background), II10^−/− and II10^−/−; Rag2^−/− mice (129/SvEv) were transferred from germ-free isolators and immediately gavaged with a single dose of 10^9 C. jejuni cfu/mouse (strain 81-176 (Korlath et al., 1985)) and sacrificed after up to 14 days as described previously (Sun et al., 2012). Specific pathogen free (SPF) housed Wt, II10^−/− and Pi3kγ^−/− (Sasaki et al., 2000) mice all on a 129/SvEv background were gavaged 10^9 C. jejuni cfu/mouse one day after 7 day treatment with antibiotics cocktail (streptomycin 2 g/L, gentamycin 0.5 g/L, bacteriocin 1 g/L and ciprofloxacin 0.125 g/L) (Sun et al., 2012). […] Histological images were acquired using a DP71 camera and DP Controller 3.1.1.276 (Olympus, Center Valley, Pa., United States of America), and intestinal inflammation was scored on a scale of 0 to 4 as described before (Lippert et al., 2009; Sun et al., 2012). Neutrophils in colonic tissues were identified based on morphological features using H&E stained sections and counted in 5 fields of view/mouse using a microscope. Data were expressed as average counts/mouse.

[3] = system: II-17a mRNA; experiment: Real-time RT-PCR of colonic II-17a mRNA; format: in vivo, mice; conditions: AS252424 vs vehicle treated infected mice
Protocol: as §1, §2

SMILES: O=C1NC(=O)/C(=C/c2ccc(-c3ccc(F)cc3O)o2)S1 [AS252424]
- block of C. jejuni-induced Cxcl2 mRNA accumulation [1]: 73%
- reduction of C. jejuni-induced crypt abscesses [2]: 95%
- block of C. jejuni-induced II17a mRNA accumulation [3]: 72%
